Data published in paper PMC7356692, “Structural Basis of Specific Glucoimidazole and Mannoimidazole Binding by Os3BGlu7” (Biomolecules, 2020).

Target: T1, Os3BGlu7 (Oryza sativa, UniProt Q75I93)
T1 construct: gene BGLU7; recombinant from E. coli Origami (DE3); IMAC, fusion tag removed with enterokinase; mature enzyme; two molecules per asymmetric unit
Assay: X-ray crystallography, […] Å
Format: binding
Conditions: crystal soaked in 10 mM mannoimidazole preparation (GIm as contaminant or isomerization product); -1 subsite; pH 6.7

T1 sequence (Q75I93 29-504): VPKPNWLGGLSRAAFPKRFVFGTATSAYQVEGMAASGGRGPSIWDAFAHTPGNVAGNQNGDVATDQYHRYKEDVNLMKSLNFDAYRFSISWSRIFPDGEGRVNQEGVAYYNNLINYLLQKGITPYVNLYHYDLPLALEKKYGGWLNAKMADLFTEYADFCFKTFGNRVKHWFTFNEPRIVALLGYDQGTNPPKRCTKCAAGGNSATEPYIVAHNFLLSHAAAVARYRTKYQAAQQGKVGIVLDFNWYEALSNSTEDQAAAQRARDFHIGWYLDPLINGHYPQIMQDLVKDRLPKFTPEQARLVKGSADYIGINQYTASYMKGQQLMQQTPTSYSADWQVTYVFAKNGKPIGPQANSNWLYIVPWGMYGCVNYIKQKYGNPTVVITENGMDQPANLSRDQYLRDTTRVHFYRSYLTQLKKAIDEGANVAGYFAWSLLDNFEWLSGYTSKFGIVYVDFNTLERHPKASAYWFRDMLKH

With `OC[C@@H]1[C@@H](O)[C@H](O)[C@@H](O)c2nccn21` [glucoimidazole] the “X-ray crystallography, 2.3 Å” value was “electron densities of ligand in the active sites of both protein molecules in the asymmetric unit”.
